In ChEMBL document CHEMBL3044843, “Synthesis of 1,2,3-triazole tethered bifunctional hybrids by click chemistry and their cytotoxic studies” (2013):
Counter-ions that a name gives are not always drawn.

What was measured:
Type in all cases: functional
Conditions in all cases: read-out: GI
COLO 205 [1] = test: Growth inhibition of Homo sapiens (human) COLO205 cells at 10 uM by SRB assay
COLO 205 [2] = test: Growth inhibition of Homo sapiens (human) COLO205 cells at 100 uM by SRB assay
THP-1 [3] = test: Growth inhibition of Homo sapiens (human) THP1 cells at 100 uM by SRB assay
THP-1 [4] = test: Growth inhibition of Homo sapiens (human) THP1 cells at 10 uM by SRB assay
A549 [5] = test: Growth inhibition of Homo sapiens (human) A549 cells at 10 uM by SRB assay
A549 [6] = test: Growth inhibition of Homo sapiens (human) A549 cells at 100 uM by SRB assay
COLO 205 [7] = test: Growth inhibition of Homo sapiens (human) COLO205 cells at 1 uM by SRB assay

Q: With COc1cc(C2CC(c3ccc([N+](=O)[O-])cc3)=NN2C(C)=O)ccc1OCc1cn(Cc2ccc([N+](=O)[O-])cc2)nn1 (stereo not given) as the compound, how does the inhibition of growth at 10 µM (COLO 205 [1]) read?
A: 33%

Q: What about the inhibition of growth at 100 µM (COLO 205 [2]) of the same compound?
A: 85%

Q: And the inhibition of growth at 100 µM (THP-1 [3])?
A: 59%

Q: What about the inhibition of growth at 10 µM (THP-1 [4]) of the same compound?
A: 7%

Q: What about the inhibition of growth at 10 µM (A549 [5]) of the same compound?
A: 39%

Q: What about the inhibition of growth at 100 µM (A549 [6]) of the same compound?
A: 72%

Q: Which results are given for COc1cc(C2CC(c3cc(OC)c(OC)c(OC)c3)=NN2C(C)=O)ccc1OCc1cn(Cc2ccc([N+](=O)[O-])cc2)nn1 (stereo not given)?
A: inhibition of growth at 10 µM (COLO 205 [1]): 60%; inhibition of growth at 100 µM (COLO 205 [2]): 99%; inhibition of growth at 100 µM (THP-1 [3]): 43%; inhibition of growth at 10 µM (THP-1 [4]): 29%; inhibition of growth at 10 µM (A549 [5]): 68%; inhibition of growth at 100 µM (A549 [6]): 85%

Q: For COc1ccc(C2CC(c3ccc(OCc4cn(Cc5ccc([N+](=O)[O-])cc5)nn4)cc3)=NN2C(C)=O)cc1 (stereo not given), which inhibition of growth at 10 µM (COLO 205 [1]) is on record?
A: 4%

Q: And the inhibition of growth at 100 µM (COLO 205 [2])?
A: 37%

Q: What about the inhibition of growth at 100 µM (THP-1 [3]) of the same compound?
A: 26%

Q: And the inhibition of growth at 10 µM (THP-1 [4])?
A: 15%

Q: And the inhibition of growth at 10 µM (A549 [5])?
A: 26%

Q: What about the inhibition of growth at 100 µM (A549 [6]) of the same compound?
A: 33%

Q: COc1ccc(C2CC(c3ccc(OCc4cn(Cc5ccc([N+](=O)[O-])cc5)nn4)cc3)=NN2C(C)=O)cc1OC (stereo not given) was tested. Which inhibition of growth at 10 µM (COLO 205 [1]) did it give?
A: 9%

Q: What about the inhibition of growth at 100 µM (COLO 205 [2]) of the same compound?
A: 38%

Q: What about the inhibition of growth at 100 µM (THP-1 [3]) of the same compound?
A: 9%

Q: What about the inhibition of growth at 10 µM (THP-1 [4]) of the same compound?
A: 8%

Q: What about the inhibition of growth at 10 µM (A549 [5]) of the same compound?
A: 11%

Q: What about the inhibition of growth at 100 µM (A549 [6]) of the same compound?
A: 36%

Q: Which inhibition of growth at 10 µM (COLO 205 [1]) does the source give for COc1cc(C2CC(c3ccccc3)=NN2C(C)=O)ccc1OCc1cn(Cc2ccc([N+](=O)[O-])cc2)nn1 (stereo not given) here?
A: 7%

Q: And the inhibition of growth at 100 µM (COLO 205 [2])?
A: 11%

Q: What about the inhibition of growth at 100 µM (THP-1 [3]) of the same compound?
A: 10%

Q: What about the inhibition of growth at 10 µM (THP-1 [4]) of the same compound?
A: 0%

Q: And the inhibition of growth at 10 µM (A549 [5])?
A: 0%

Q: What about the inhibition of growth at 100 µM (A549 [6]) of the same compound?
A: 11%

Q: With COc1cc(C2CC(c3ccc(OCc4cn(Cc5ccc([N+](=O)[O-])cc5)nn4)cc3)=NN2C(C)=O)ccc1OCc1cn(Cc2ccc([N+](=O)[O-])cc2)nn1 (stereo not given) as the compound, how does the inhibition of growth at 10 µM (COLO 205 [1]) read?
A: 27%

Q: What about the inhibition of growth at 100 µM (COLO 205 [2]) of the same compound?
A: 51%

Q: And the inhibition of growth at 100 µM (THP-1 [3])?
A: 15%

Q: What about the inhibition of growth at 10 µM (THP-1 [4]) of the same compound?
A: 0%

Q: What about the inhibition of growth at 10 µM (A549 [5]) of the same compound?
A: 29%

Q: What about the inhibition of growth at 100 µM (A549 [6]) of the same compound?
A: 42%

Q: What does the source list for COc1cc(C2CC(c3cccc4ccccc34)=NN2C(C)=O)ccc1OCc1cn(Cc2ccc([N+](=O)[O-])cc2)nn1 (stereo not given)?
A: inhibition of growth at 10 µM (COLO 205 [1]): 46%; inhibition of growth at 100 µM (COLO 205 [2]): 72%; inhibition of growth at 100 µM (THP-1 [3]): 79%; inhibition of growth at 10 µM (THP-1 [4]): 10%; inhibition of growth at 10 µM (A549 [5]): 89%; inhibition of growth at 100 µM (A549 [6]): 95%

Q: How did the inhibition of growth at 10 µM (COLO 205 [1]) turn out when CC(=O)N1N=C(c2ccc(OCc3cn(Cc4ccc([N+](=O)[O-])cc4)nn3)cc2)CC1c1ccccc1 (stereo not given) was run?
A: 18%

Q: And the inhibition of growth at 100 µM (COLO 205 [2])?
A: 55%

Q: And the inhibition of growth at 100 µM (THP-1 [3])?
A: 22%

Q: What about the inhibition of growth at 10 µM (THP-1 [4]) of the same compound?
A: 0%

Q: What about the inhibition of growth at 10 µM (A549 [5]) of the same compound?
A: 15%

Q: What about the inhibition of growth at 100 µM (A549 [6]) of the same compound?
A: 80%

Q: Which results are given for COc1cc(C2CC(c3ccc(Br)cc3)=NN2C(C)=O)ccc1OCc1cn(Cc2ccc([N+](=O)[O-])cc2)nn1 (stereo not given)?
A: inhibition of growth at 10 µM (COLO 205 [1]): 26%; inhibition of growth at 100 µM (COLO 205 [2]): 47%; inhibition of growth at 100 µM (THP-1 [3]): 23%; inhibition of growth at 10 µM (THP-1 [4]): 1%; inhibition of growth at 10 µM (A549 [5]): 0%; inhibition of growth at 100 µM (A549 [6]): 17%

Q: What does the source list for COc1cc(C2CC(c3ccc(Cl)cc3)=NN2C(C)=O)ccc1OCc1cn(Cc2ccc([N+](=O)[O-])cc2)nn1 (stereo not given)?
A: inhibition of growth at 10 µM (COLO 205 [1]): 0%; inhibition of growth at 100 µM (COLO 205 [2]): 10%; inhibition of growth at 100 µM (THP-1 [3]): 37%; inhibition of growth at 10 µM (THP-1 [4]): 17%; inhibition of growth at 10 µM (A549 [5]): 0%; inhibition of growth at 100 µM (A549 [6]): 0%

Q: For COc1ccc(C2=NN(C(C)=O)C(c3ccc(OCc4cn(Cc5ccc([N+](=O)[O-])cc5)nn4)c(OC)c3)C2)cc1 (stereo not given), which inhibition of growth at 10 µM (COLO 205 [1]) is on record?
A: 10%

Q: And the inhibition of growth at 100 µM (COLO 205 [2])?
A: 75%

Q: And the inhibition of growth at 100 µM (THP-1 [3])?
A: 14%

Q: What about the inhibition of growth at 10 µM (THP-1 [4]) of the same compound?
A: 8%

Q: And the inhibition of growth at 10 µM (A549 [5])?
A: 43%

Q: What about the inhibition of growth at 100 µM (A549 [6]) of the same compound?
A: 84%

Q: With COc1cccc2c1C(=O)c1c(O)c3c(c(O)c1C2=O)C[C@@](O)(C(=O)CO)C[C@@H]3O[C@H]1C[C@H](N)[C@H](O)[C@H](C)O1 [DOXORUBICIN HYDROCHLORIDE] as the compound, how does the inhibition of growth at 1 µM (COLO 205 [7]) read?
A: 72%

Q: With CO[C@@]12[C@H](COC(N)=O)C3=C(C(=O)C(C)=C(N)C3=O)N1C[C@@H]1N[C@@H]12 [MITOMYCIN] as the compound, how does the inhibition of growth at 10 µM (THP-1 [4]) read?
A: 65%

Q: What does the source list for CC(=O)O[C@H]1C(=O)[C@@]2(C)[C@H]([C@H](OC(=O)c3ccccc3)[C@]3(O)C[C@H](OC(=O)[C@H](O)[C@@H](NC(=O)c4ccccc4)c4ccccc4)C(C)=C1C3(C)C)[C@]1(OC(C)=O)CO[C@@H]1C[C@@H]2O [PACLITAXEL]?
A: inhibition of growth at 10 µM (THP-1 [4]): 62%; inhibition of growth at 10 µM (A549 [5]): 59%
